# Experimental data: patent publication US9662327B2 (AGIOS PHARMACEUTICALS, INC, priority 2011, dated 2017)
# Biological target: IDH1 R132H (Homo sapiens (Human), UniProt O75874, R132H)
# Test: Assays for IDH1 R132H Inhibitors (NADPH/aKG, resazurin detection)
# Assay type: biochemical
# Details: IDH1 R132H enzyme, Table 2; read-out: IDHR132H Activity
# Outline: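 Substrate mix held 8 uM NADPH plus 2 mM aKG; buffer was 20 mM Tris pH 7.5 with 150 mM NaCl, 10 mM MgCl2, 0.03% BSA. After 50 min room-temperature reaction, NADPH remaining was detected with 30 μM resazurin mix over 5 min.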
# IDH1 R132H, sequence (O75874 whole entry R132H): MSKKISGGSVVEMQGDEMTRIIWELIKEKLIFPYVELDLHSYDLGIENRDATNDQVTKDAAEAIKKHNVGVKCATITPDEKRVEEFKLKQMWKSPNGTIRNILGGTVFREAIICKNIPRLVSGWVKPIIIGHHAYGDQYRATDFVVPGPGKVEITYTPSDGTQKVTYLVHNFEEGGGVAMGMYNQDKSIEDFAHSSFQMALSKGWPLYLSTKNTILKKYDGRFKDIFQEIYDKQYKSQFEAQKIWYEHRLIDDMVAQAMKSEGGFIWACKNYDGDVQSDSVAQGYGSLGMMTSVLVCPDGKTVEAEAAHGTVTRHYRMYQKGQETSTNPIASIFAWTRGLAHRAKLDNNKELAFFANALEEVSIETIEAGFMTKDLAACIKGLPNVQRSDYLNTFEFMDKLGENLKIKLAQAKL
row,Compound,IC50 [nM]
1,"CC(C)[C@@H]1CN(c2nc(C3CCC3)c3c(c2C#N)CC(C)(C)OC3)CCN1C(=O)C1CC1 [Compound 396, (R)-8-cyclobutyl-6-(4-(cyclopropanecarbonyl)-3-isopropylpiperazin-1-yl)-3,3-dimethyl-3,4-dihydro-1H-pyrano[3,4-c]pyridine-5-carbonitrile]",500 to 1000
2,CC[C@@H]1CN(c2nc(C3CC3)c3c(c2C#N)CC(C)(C)OC3)CCN1C(=O)c1ccoc1 [Compound 235],< 500
3,"Cc1ccc(NC(=O)N2CCN(c3nc(C4CCCCC4)c4c(c3C#N)CCOC4)C[C@H]2C)cc1 [Compound 280, (R)-4-(5-cyano-8-cyclohexyl-3,4-dihydro-1H-pyrano[3,4-c]pyridin-6-yl)-2-methyl-N-p-tolylpiperazine-1-carboxamide]",1000 to 10000
4,"C=CCNC(=O)N1CCN(c2nc(C3CCCCC3)c3c(c2C#N)CCOC3)CC1C(=O)OCC (stereo not drawn) [Compound 330, ethyl 1-(allylcarbamoyl)-4-(5-cyano-8-cyclohexyl-3,4-dihydro-1H-pyrano[3,4-c]pyridin-6-yl)-piperazine-2-carboxylate]",1000 to 10000
5,"CC[C@@H]1CN(c2nc(C3CC3)c3c(c2C#N)CC(C)(C)OC3)CCN1C(=O)c1ccoc1C [Compound 237, (R)-8-cyclopropyl-6-(3-ethyl-4-(2-methylfuran-3-carbonyl)piperazin-1-yl)-3,3-dimethyl-3,4-dihydro-1H-pyrano[3,4-c]pyridine-5-carbonitrile]",< 500
6,"CCOC(=O)C1CN(c2nc(C3CCCCC3)c3c(c2C#N)CCOC3)CCN1C(=O)OCCOC (stereo not drawn) [Compound 315, 2-ethyl-1-(2-methoxyethyl) 4-(5-cyano-8-cyclohexyl-3,4-dihydro-1H-pyrano[3,4-c]pyridin-6-yl)-piperazine-1,2-dicarboxylate]",1000 to 10000
7,"C#CCNCC(=O)N1CCN(c2nc(C3CC3)c3c(c2C#N)CC(C)(C)OC3)C[C@H]1C(C)C [Compound 373, (R)-8-cyclopropyl-6-(3-isopropyl-4-(2-(prop-2-ynylamino)acetyl)piperazin-1-yl)-3,3-dimethyl-3,4-dihydro-1H-pyrano[3,4-c]pyridine-5-carbonitrile]",1000 to 10000
8,"C[C@@H]1CN(c2nc(C3CCCCC3)c3c(c2C#N)CCOC3)CCN1C(=O)c1cccs1 [Compound 241, (R)-8-cyclohexyl-6-(3-methyl-4-(thiophene-2-carbonyl)piperazin-1-yl)-3,4-dihydro-1H-pyrano[3,4-c]pyridine-5-carbonitrile]",1000 to 10000
9,Cc1ccoc1C(=O)N1CCN(c2nc(C3CC3)c3c(c2C#N)CC(C)(C)OC3)C[C@H]1C(C)C [Compound 193],1000 to 10000
10,CC(C)[C@@H]1CN(c2nc(C3CC3)c3c(c2C#N)CC(C)(C)OC3)CCN1C(=O)N(C)C [Compound 351],1000 to 10000
11,"CSCCC(=O)N1CCN(c2nc(C3CCCCC3)c3c(c2C#N)CCOC3)C[C@H]1C [Compound 264, (R)-8-cyclohexyl-6-(3-methyl-4-(3-(methylthio)propanoyl)piperazin-1-yl)-3,4-dihydro-1H-pyrano[3,4-c]pyridine-5-carbonitrile]",1000 to 10000
12,"C[C@@H]1CN(c2nc(C3CCCCC3)c3c(c2C#N)CCOC3)CCN1C(=O)c1cscn1 [Compound 239, (R)-8-cyclohexyl-6-(3-methyl-4-(thiazole-4-carbonyl)piperazin-1-yl)-3,4-dihydro-1H-pyrano[3,4-c]pyridine-5-carbonitrile]",1000 to 10000
13,"Cc1oncc1C(=O)N1CCN(c2nc(C(C)C)c3c(c2C#N)CC(C)(C)OC3)C[C@H]1C [Compound 217, (R)-8-isopropyl-3,3-dimethyl-6-(3-methyl-4-(5-methylisoxazole-4-carbonyl)piperazin-1-yl)-3,4-dihydro-1H-pyrano[3,4-c]pyridine-5-carbonitrile]",500 to 1000
14,"CC(C)c1nc(N2CCN(C(=O)c3ccoc3)C(C)C2)c(C#N)c2c1COC(C)(C)C2 (stereo not drawn) [Compound 138, 6-(4-(furan-3-carbonyl)-3-methylpiperazin-1-yl)-8-isopropyl-3,3-dimethyl-3,4-dihydro-1H-pyrano[3,4-c]pyridine-5-carbonitrile]",1000 to 10000
15,CC(C)c1nc(N2CCN(S(=O)(=O)c3cccs3)CC2)c(C#N)c2c1COCC2 [Compound 101],1000 to 10000
16,"C=CCNC(=O)N1CCN(c2nc(C3CCCCC3)c3c(c2C#N)CCOC3)C[C@H]1C [Compound 334, (R)—N-allyl-4-(5-cyano-8-cyclohexyl-3,4-dihydro-1H-pyrano[3,4-c]pyridin-6-yl)-2-methylpiperazine-1-carboxamide]",1000 to 10000
17,"Cc1cnn(CC(=O)N2CCN(c3nc(C4CC4)c4c(c3C#N)CC(C)(C)OC4)C[C@H]2C(C)C)c1 [Compound 401, (R)-8-cyclopropyl-6-(3-isopropyl-4-(2-(4-methyl-1H-pyrazol-1-yl)acetyl)piperazin-1-yl)-3,3-dimethyl-3,4-dihydro-1H-pyrano[3,4-c]pyridine-5-carbonitrile]",< 500
18,"CC(C)c1nc(N2CCN(C(=O)c3ccoc3)[C@H](C)C2)c(C#N)c2c1COC(C)(C)C2 [Compound 149, (R)-6-(4-(furan-3-carbonyl)-3-methylpiperazin-1-yl)-8-isopropyl-3,3-dimethyl-3,4-dihydro-1H-pyrano[3,4-c]pyridine-5-carbonitrile]",1000 to 10000

row,Compound,IC50 [nM]
1,"COCC(=O)N1CCN(c2nc(C3CC3)c3c(c2C#N)CC(C)(C)OC3)C[C@H]1C(C)C [Compound 347, (R)-8-cyclopropyl-6-(3-isopropyl-4-(2-methoxyacetyl)piperazin-1-yl)-3,3-dimethyl-3,4-dihydro-1H-pyrano[3,4-c]pyridine-5-carbonitrile]",< 500
2,"CC(C)[C@@H]1CN(c2nc(C3CCCCC3)c3c(c2C#N)CCOC3)CCN1C(=O)c1ccco1 [Compound 182, (R)-8-cyclohexyl-6-(4-(furan-2-carbonyl)-3-isopropylpiperazin-1-yl)-3,4-dihydro-1H-pyrano[3,4-c]pyridine-5-carbonitrile]",1000 to 10000
3,"CC(C)c1nc(N2CCN(C(=O)Cc3ccccn3)[C@H](C)C2)c(C#N)c2c1COC(C)(C)C2 [Compound 218, (R)-8-isopropyl-3,3-dimethyl-6-(3-methyl-4-(2-(pyridin-2-yl)acetyl)piperazin-1-yl)-3,4-dihydro-1H-pyrano[3,4-c]pyridine-5-carbonitrile]",1000 to 10000
4,Cc1cc(C(=O)N2CCN(c3nc(C4CC4)c4c(c3C#N)CC(C)(C)OC4)C[C@H]2C)c(C)o1 [Compound 244],1000 to 10000
5,"CC(C)[C@@H]1CN(c2nc(C3CCC3)c3c(c2C#N)CC(C)(C)OC3)CCN1C(=O)c1ccoc1 [Compound 288, (R)-8-cyclobutyl-6-(4-(furan-3-carbonyl)-3-isopropylpiperazin-1-yl)-3,3-dimethyl-3,4-dihydro-1H-pyrano[3,4-c]pyridine-5-carbonitrile]",< 500
6,CC(C)[C@@H]1CN(c2nc(C3CC3)c3c(c2C#N)CC(C)(C)OC3)CCN1C(=O)NCCc1ccccc1 [Compound 286],1000 to 10000
7,Cc1occc1C(=O)N1CCN(c2nc(C3CC3)c3c(c2C#N)CC(C)(C)OC3)CC1(C)C [Compound 321],1000 to 10000
8,COCCC(=O)N1CCN(c2nc(C3CC3)c3c(c2C#N)CC(C)(C)OC3)CC1C(=O)OC (stereo not drawn) [Compound 388],500 to 1000
9,"CC(C)[C@@H]1CN(c2nc(C3CC3)c3c(c2C#N)CC(C)(C)OC3)CCN1C(=O)Cn1cncn1 [Compound 324, (R)-6-(4-(2-(1H-1,2,4-triazol-1-yl)acetyl)-3-isopropylpiperazin-1-yl)-8-cyclopropyl-3,3-dimethyl-3,4-dihydro-1H-pyrano[3,4-c]pyridine-5-carbonitrile]",1000 to 10000
10,CC(C)[C@@H]1CN(c2nc(C3CC3)c3c(c2C#N)CC(C)(C)OC3)CCN1C(=O)Cc1ccccn1 [Compound 211],< 500
11,"CC(C)c1nc(N2CCN(C(=O)c3ccco3)C[C@@H]2C)c(C#N)c2c1COC(C)(C)C2 [Compound 202, (S)-6-(4-(furan-2-carbonyl)-2-methylpiperazin-1-yl)-8-isopropyl-3,3-dimethyl-3,4-dihydro-1H-pyrano[3,4-c]pyridine-5-carbonitrile]",1000 to 10000
12,"CC(C)c1nc(N2CCN(C(=O)c3ccco3)CC2c2ccccc2)c(C#N)c2c1COCC2 (stereo not drawn) [Compound 111, 6-(4-(furan-2-carbonyl)-2-phenylpiperazin-1-yl)-8-isopropyl-3,4-dihydro-1H-pyrano[3,4-c]pyridine-5-carbonitrile]",1000 to 10000
13,"CC(C)[C@@H]1CN(c2nc(C3CC3)c3c(c2C#N)CC(C)(C)OC3)CCN1C(=O)Cn1cc(Br)cn1 [Compound 415, (R)-6-(4-(2-(4-bromo-1H-pyrazol-1-yl)acetyl)-3-isopropylpiperazin-1-yl)-8-cyclopropyl-3,3-dimethyl-3,4-dihydro-1H-pyrano[3,4-c]pyridine-5-carbonitrile]",500 to 1000
14,"C[C@@H]1CN(c2nc(C3CCCCC3)c3c(c2C#N)CCOC3)CCN1C(=O)c1nccn1C [Compound 262, (R)-8-cyclohexyl-6-(3-methyl-4-(1-methyl-1H-imidazole-2-carbonyl)piperazin-1-yl)-3,4-dihydro-1H-pyrano[3,4-c]pyridine-5-carbonitrile]",1000 to 10000
15,CC(=O)OCCCN1CCN(c2nc(C3CC3)c3c(c2C#N)CC(C)(C)OC3)C[C@H]1C(C)C [Compound 322],1000 to 10000
16,CON(C)CC(=O)N1CCN(c2nc(C3CC3)c3c(c2C#N)CC(C)(C)OC3)C[C@H]1C(C)C [Compound 338],1000 to 10000
17,C[C@@H]1CN(c2nc(C3CC3)c3c(c2C#N)CC(C)(C)OC3)CCN1C(=O)c1ccoc1 [Compound 164],500 to 1000

# Same assay, conditions: IDH1 R132H enzyme, Table 3; read-out: R132H IC50
row,Compound,IC50 [nM]
1,"CC1(C)Cc2c(C#N)c(N3CCN(C(=O)CC4COC4)[C@H](C4CC4)C3)nc(C3CC3)c2CO1 [Compound 466, (R)-8-cyclopropyl-6-(3-cyclopropyl-4-(2-(oxetan-3-yl)acetyl)piperazin-1-yl)-3,3-dimethyl-3,4-dihydro-1H-pyrano[3,4-c]pyridine-5-carbonitrile]",500 to 1000
